Data taken from US7713957B2, “Pharmaceutical composition containing gabapentin or pregabalin and N-type calcium channel antagonist” (Ajinomoto Co., Inc., priority 2002, dated 2010).
Like-named read-outs stand apart in the source and are kept apart here.

Key:
N-type calcium channel = target: T1, N-type calcium channel (Homo sapiens, UniProt Q00975); test: Antagonistic activity on N-type calcium channel (fluorescence dye method, IMR-32 cells); format: cell-based; conditions: 10 μM test compound, 60 mM KCl stimulation, 1 μM Nifedipine, read-out: Antagonistic activity on N-type calcium channels at 10 μM Inhibition rate (%)
T1 construct: host or cells: IMR-32 human neuroblastoma cells, differentiated with dibutyl cAMP and 5-bromodeoxyuridine for 10 to 14 days
Description: Antagonistic Activity on N-Type Calcium Channel (Fluorescence Dye Method)
Human neuroblastoma cells IMR-32 were obtained from ATCC (American Type Culture Collection). The medium used was a Phenol Red-free Eagle minimum essential medium containing earle's salts supplement (GIBCO) supplemented with 2 mM of L-glutamine (GIBCO), 1 mM of sodium pyruvate (pH 6.5) (GIBCO), antibiotic/antimycotic mixture (GIBCO) and 10% fetal calf serum (Cell Culture Technologies). 3 ml of 1×10^5 cells/ml IMR-32 cells were spread on the glass bottom of a dish (Iwaki Glsss Co., Ltd.) having a diameter of 35 mm which had been treated with poly-L-lysin (SIGMA) and collagen (COLLAGEN VITROGEN 100; Collagen Co.). After the culture for 1 day, 1 mM (final concentration) of dibutyl cAMP and 2.5 μM (final concentration) of 5-bromodeoxyuridine (SIGMA) were added. After the culture for additional 10 to 14 days, the cells were subjected to the activity determination.
The medium for IMR-32 cells thus prepared was replaced with 1 ml of Phenol Red-free and earle's salts supplemented Eagle minimum essential medium (GIBCO) containing 2.5 μM fura-2/AM (Dojin Kagaku, Co.), and the incubation was conducted at 37° C. for 30 minutes. […] Antagonistic activity on N-type calcium channel was determined and analyzed using a fluorescence microscope (Nikon Corporation) and an image analysis device ARGUS 50 (Hamamatsu Photonics). […]

Sprague-Dawley rats = test: Formalin test in rat pain models (flinching action, second phase); format: in vivo
Description: Analgesic activities were determined in the formalin test. Four test groups [a control group (given a saline solution) and groups given 30, 100 and 300 mg/kg of gabapentin] each composed of 6 to 7 male Sprague-Dawley rats (SD rats, 9 weeks old) were used for the experiment. Gabapentin was dissolved in a saline solution.
4 ml/kg of a saline solution or gabapentin was orally administered to the rats. Three hours after, the rats were tranquilized with halothane, and 2.5% formalin solution (100 μl) was injected subcutaneously to dorsal surface of the left hindpaw. Immediately thereafter, the rats were awaken from the anesthesia. […] The number of times of retracting action, i.e., flinching action of the hindpaw in which formalin had been injected, was counted for 1 minute at an interval of one minute until 5 minutes after the formalin injection, and for 1 minute at an interval of 5 minutes from 10 to 60 minutes after the injection. […] The total number of times of the flinching action observed 10 to 60 minutes after the formalin injection (the second phase) was taken as the index of the pain action.
Analgesic activities were determined in the formalin test. Four test groups [a control group, a group given the compound A (the compound of Referential Example 11: 3 mg/kg), a group given 100 mg/kg of gabapentin and a group given a combination of 3 mg/kg of the compound A and 100 mg/kg of gabapentin] each composed of 6 to 7 male Sprague-Dawley rats (SD rats, 9 weeks old) were used for the experiment. The administration volume to each group was as follows. In the control group, 5 ml/kg of 0.5% tragacanth solution and 4 ml/kg of a saline solution were given orally to the rats. In the group given the compound A, 5 ml/kg of the compound A suspended in 0.5% tragacanth solution and 4 ml/kg of a saline solution were given orally to them. In the group given gabapentin, 5 ml/kg of 0.5% tragacanth solution and 4 ml/kg of gabapentin dissolved in a saline solution were given orally to them. In the group given a combination of the compound A and gabapentin, 5 ml/kg of the compound A suspended in 0.5% tragacanth solution and 4 ml/kg of gabapentin dissolved in a saline solution were given orally to them.
Analgesic activities were determined in the formalin test. Four test groups [a control group, a group given the compound B (the compound of Referential Example 71: 3 mg/kg), a group given 100 mg/kg of gabapentin and a group given a combination of 3 mg/kg of the compound B and 100 mg/kg of gabapentin] each composed of 6 male Sprague-Dawley rats (SD rats, 9 weeks old) were used for the experiment. The administration volume to each group was as follows. In the control group, 3 ml/kg of polyethylene glycol 400 (PEG) and 4 ml/kg of a saline solution were given orally to the rats. In the group given the compound B, 3 ml/kg of the compound B dissolved in PEG and 4 ml/kg of a saline solution were given orally to them. In the group given gabapentin, 3 ml/kg of PEG and 4 ml/kg of gabapentin dissolved in a saline solution were given orally to them. In the group given the combination of compound B and gabapentin, 3 ml/kg of the compound B dissolved in PEG and 4 ml/kg of gabapentin dissolved in a saline solution were given orally to them.
Analgesic activities were determined in the formalin test. Four test groups [a control group (given a saline solution) and groups given 10, 30 and 100 mg/kg of pregabalin] each composed of 6 male Sprague-Dawley rats (SD rats, 9 weeks old) were used for the experiment. Pregabalin was dissolved in a saline solution. 4 ml/kg of a saline solution or pregabalin was orally administered to the rats.
Analgesic activities were determined in the formalin test.

[1] = cited from earlier work
[2] = clinical use; cited from earlier work
[3] = patients with post-herpetic neuralgia (Acta Neurol. Scand. 101:359-371, 2000); cited from earlier work

T1 sequence (Q00975 whole entry): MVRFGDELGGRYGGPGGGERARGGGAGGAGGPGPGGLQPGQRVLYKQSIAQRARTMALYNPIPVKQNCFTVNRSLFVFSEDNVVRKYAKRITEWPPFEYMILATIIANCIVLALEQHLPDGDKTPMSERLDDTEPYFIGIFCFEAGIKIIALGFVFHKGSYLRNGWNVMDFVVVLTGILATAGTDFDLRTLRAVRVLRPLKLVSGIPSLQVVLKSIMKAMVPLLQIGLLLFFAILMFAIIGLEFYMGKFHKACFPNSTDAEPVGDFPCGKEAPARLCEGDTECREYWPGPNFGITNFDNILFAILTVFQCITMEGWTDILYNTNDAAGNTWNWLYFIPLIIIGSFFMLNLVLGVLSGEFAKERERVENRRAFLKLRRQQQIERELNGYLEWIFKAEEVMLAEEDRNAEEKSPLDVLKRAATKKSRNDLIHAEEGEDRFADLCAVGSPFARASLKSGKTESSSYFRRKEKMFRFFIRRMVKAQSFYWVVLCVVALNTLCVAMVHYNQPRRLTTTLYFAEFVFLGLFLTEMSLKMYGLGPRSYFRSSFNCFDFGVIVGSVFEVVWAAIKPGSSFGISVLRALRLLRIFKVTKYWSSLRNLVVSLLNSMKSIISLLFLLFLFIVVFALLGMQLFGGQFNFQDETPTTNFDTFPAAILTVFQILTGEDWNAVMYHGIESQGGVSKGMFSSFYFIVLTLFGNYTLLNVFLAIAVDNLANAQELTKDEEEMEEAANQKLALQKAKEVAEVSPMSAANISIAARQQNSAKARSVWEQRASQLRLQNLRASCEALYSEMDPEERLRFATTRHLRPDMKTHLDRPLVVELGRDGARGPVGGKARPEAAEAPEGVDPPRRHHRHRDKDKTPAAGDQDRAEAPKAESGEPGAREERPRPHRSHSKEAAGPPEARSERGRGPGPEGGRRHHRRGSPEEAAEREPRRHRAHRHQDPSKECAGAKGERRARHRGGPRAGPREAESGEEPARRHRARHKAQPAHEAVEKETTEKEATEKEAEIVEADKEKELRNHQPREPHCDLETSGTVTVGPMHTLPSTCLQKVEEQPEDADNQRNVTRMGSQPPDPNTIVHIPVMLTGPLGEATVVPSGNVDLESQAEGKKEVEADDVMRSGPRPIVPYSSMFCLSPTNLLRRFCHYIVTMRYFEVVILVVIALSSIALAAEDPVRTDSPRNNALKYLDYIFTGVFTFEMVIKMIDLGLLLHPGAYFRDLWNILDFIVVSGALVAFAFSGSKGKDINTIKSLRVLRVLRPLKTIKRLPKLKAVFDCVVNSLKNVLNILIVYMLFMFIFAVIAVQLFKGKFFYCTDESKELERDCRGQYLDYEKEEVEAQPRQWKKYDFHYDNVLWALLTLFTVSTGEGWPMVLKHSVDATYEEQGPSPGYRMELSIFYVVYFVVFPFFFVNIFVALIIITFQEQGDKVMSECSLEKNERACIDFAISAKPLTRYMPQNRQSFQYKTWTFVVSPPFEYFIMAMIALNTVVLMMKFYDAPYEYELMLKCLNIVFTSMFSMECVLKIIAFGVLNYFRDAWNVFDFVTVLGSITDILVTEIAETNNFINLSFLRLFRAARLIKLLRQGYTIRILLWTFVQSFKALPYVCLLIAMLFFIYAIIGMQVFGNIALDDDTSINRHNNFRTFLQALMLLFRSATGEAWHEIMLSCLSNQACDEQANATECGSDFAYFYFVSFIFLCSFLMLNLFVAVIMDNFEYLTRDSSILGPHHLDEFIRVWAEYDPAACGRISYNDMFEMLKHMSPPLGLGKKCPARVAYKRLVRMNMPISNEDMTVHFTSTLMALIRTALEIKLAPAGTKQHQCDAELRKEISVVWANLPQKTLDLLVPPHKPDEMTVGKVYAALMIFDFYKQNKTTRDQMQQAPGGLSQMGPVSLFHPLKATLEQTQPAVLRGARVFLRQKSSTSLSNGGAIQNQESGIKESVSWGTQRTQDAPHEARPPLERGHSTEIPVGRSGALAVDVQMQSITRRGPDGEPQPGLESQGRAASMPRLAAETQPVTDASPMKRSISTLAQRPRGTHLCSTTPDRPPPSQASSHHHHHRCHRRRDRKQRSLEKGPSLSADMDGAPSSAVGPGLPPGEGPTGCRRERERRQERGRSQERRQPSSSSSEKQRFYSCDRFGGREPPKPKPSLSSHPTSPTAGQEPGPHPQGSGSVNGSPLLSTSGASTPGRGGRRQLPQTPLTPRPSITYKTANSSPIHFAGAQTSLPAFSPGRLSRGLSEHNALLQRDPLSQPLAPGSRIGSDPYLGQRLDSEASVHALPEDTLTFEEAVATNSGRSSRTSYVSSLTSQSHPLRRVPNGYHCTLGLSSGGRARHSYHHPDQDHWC
T1 sequence (Q02641 whole entry partner): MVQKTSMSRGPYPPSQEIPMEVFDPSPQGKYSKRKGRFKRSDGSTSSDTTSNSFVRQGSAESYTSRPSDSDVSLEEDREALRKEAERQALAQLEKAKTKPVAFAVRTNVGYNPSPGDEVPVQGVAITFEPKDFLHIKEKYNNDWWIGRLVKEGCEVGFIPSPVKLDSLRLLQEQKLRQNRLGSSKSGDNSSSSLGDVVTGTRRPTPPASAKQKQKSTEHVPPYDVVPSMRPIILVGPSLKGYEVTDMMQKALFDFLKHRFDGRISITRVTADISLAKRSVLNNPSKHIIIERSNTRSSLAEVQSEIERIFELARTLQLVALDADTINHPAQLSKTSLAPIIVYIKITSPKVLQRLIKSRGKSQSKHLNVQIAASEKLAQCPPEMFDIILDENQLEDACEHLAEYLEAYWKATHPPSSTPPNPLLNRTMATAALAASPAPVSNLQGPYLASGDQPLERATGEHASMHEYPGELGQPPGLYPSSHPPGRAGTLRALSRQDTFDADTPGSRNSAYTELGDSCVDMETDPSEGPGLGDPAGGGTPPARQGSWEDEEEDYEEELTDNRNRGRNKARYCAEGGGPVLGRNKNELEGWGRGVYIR
T1 sequence (P54289 25-956 partner limits assumed): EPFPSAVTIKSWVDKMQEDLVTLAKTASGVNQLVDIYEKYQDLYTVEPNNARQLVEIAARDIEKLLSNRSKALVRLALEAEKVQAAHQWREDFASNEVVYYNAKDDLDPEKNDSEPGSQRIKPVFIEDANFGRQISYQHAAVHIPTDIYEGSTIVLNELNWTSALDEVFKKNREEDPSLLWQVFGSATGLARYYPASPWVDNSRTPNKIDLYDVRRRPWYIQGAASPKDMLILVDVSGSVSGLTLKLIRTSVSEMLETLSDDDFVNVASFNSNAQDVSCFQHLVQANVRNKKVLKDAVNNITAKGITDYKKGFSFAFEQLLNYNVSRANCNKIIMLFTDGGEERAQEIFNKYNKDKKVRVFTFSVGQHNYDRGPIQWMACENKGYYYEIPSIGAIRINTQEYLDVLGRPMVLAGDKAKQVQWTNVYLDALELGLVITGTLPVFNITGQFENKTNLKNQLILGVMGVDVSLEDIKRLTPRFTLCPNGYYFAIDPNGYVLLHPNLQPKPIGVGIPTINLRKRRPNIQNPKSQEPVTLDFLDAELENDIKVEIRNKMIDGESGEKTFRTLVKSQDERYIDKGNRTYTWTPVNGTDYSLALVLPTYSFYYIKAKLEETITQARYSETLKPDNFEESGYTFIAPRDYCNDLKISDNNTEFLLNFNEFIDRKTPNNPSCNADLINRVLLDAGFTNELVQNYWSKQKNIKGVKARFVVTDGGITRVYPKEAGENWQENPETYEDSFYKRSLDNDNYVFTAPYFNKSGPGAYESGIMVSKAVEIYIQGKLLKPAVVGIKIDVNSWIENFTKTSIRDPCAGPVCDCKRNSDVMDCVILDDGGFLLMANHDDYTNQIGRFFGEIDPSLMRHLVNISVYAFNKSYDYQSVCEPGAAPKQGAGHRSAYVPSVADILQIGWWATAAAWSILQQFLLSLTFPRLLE
T1 sequence (P54289 957-1103 partner limits assumed): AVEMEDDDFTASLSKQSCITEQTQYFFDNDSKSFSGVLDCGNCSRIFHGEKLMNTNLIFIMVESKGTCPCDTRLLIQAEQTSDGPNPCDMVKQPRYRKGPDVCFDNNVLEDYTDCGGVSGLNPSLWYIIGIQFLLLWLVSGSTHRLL

## CC(C)(C)CC(=O)NCCCNC(=O)C=C1c2ccccc2C=Cc2ccccc21 [Example 41]
N-type calcium channel
  inhibition at 10 µM: 76%

## CC(C)(C)C(=O)NCCC(=O)N1CCC(=C2c3ccccc3C=Cc3ccccc32)CC1 [Referential Example 11, N-{3-[4-(5H-dibenzo[a, d] [7]annulen-5-ylidene)-1-piperidinyl]-3-oxopropyl}-2,2-dimethylpropanamide]
Sprague-Dawley rats; Example 2, 3 mg/kg oral, suspended in 0.5% tragacanth
  inhibiting ratio of flinches: 38%

## CC(C)(C)C(=O)N[C@H](CO)CCC(=O)N1CCC(=C2c3ccccc3C=Cc3ccccc32)CC1 [Referential Example 71, (S)-N-[4-[4-(5H-dibenzo[a,d] [7]annulen-5-ylidene)-1-piperidinyl]-1-(hydroxylmethyl)-4-oxobutyl]-2.2-dimethylpropanamide]
Sprague-Dawley rats; Example 3, 3 mg/kg oral, dissolved in PEG
  inhibiting ratio of flinches: 16%
Sprague-Dawley rats; Example 5, 3 mg/kg oral, dissolved in PEG
  inhibiting ratio of flinches: 7%

## NCC1(CC(=O)O)CCCCC1 [gabapentin, 1-(aminomethyl)-cyclohexaneacetic acid]
[1]; whole body administration of 300 mg/kg or more
  motor function of the body: significant decrease in motor function of the body
Sprague-Dawley rats; Example 1, 30 mg/kg oral, vs control group
  inhibiting ratio of flinches: 11%
Sprague-Dawley rats; Example 1, 100 mg/kg oral, vs control group
  inhibiting ratio of flinches: 42%
Sprague-Dawley rats; Example 1, 300 mg/kg oral, vs control group
  inhibiting ratio of flinches: 47%
Sprague-Dawley rats; Example 2, 100 mg/kg oral
  inhibiting ratio of flinches: 47%
Sprague-Dawley rats; Example 3, 100 mg/kg oral
  inhibiting ratio of flinches: 59%
[2]
  side-effects: somnolence and dizziness
[3]
  treatment effectiveness: approximately 60%

## CC(C)C[C@H](CN)CC(=O)O [pregabalin, (S)-3-(aminomethyl)-5-methylhexanoic acid]
[1]; whole body administration of 100 mg/kg or more
  motor function of the body: significant decrease in motor function of the body
Sprague-Dawley rats; Example 4, 10 mg/kg oral, vs control group
  inhibiting ratio of flinches: 31%
Sprague-Dawley rats; Example 4, 30 mg/kg oral, vs control group
  inhibiting ratio of flinches: 61%
Sprague-Dawley rats; Example 4, 100 mg/kg oral, vs control group
  inhibiting ratio of flinches: 61%
Sprague-Dawley rats; Example 5, 30 mg/kg oral
  inhibiting ratio of flinches: 48%
[2]
  side-effects: somnolence and dizziness
